Consider 66 molecules from patent US6664273B2, “Piperidine based MCH antagonists for treatment of obesity and CNS disorders” (Schering Corporation, priority 2001, dated 2003).

The Ki is the dissociation constant of the complex between target and ligand, obtained from inhibition or displacement.

T1 sequence (Q99705 whole entry): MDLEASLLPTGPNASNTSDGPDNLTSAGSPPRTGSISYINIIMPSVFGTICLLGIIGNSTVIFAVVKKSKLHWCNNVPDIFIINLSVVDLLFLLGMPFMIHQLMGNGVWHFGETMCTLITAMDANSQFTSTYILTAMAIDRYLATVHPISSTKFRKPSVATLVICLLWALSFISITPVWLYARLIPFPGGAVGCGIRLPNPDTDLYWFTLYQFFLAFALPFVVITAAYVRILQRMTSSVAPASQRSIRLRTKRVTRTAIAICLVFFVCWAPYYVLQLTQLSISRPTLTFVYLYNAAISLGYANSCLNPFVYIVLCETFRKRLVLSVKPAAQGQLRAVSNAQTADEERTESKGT

This test has as its target T1, MCH receptor (Homo sapiens, UniProt Q99705).
T1 construct: expressed in transfected cells; host or cells: CHO cells
Put plainly: MCH Receptor Binding Assay. Particulars: [125I]-MCH, SPA, membranes from CHO cells expressing the MCH receptor. The protocol: Membranes from CHO cells expressing the MCH receptor were prepared by lysing cells with 5 mM HEPES for 15 min at 4C. Cell lysates were centrifuged ([…], 15 min) and the pellet was re-suspended in 5 mM HEPES. For each 96-well plate (Microlite, Dynex Technologies), 1 mg of cell membranes were incubated with 10 mg of wheat germ agglutinin SPA beads (Amersham) for 5 min at 4 C in a volume of 10 ml of binding buffer (25 mM HEPES, 10 mM MGCl2, 10 mM NaCl, 5 mM MnCl2, 0.1% BSA). The membrane/bead mixture was centrifuged (1500×g, 3.5 min), the supernatant was aspirated, and the pellet was re-suspended in 10 ml binding buffer. The centrifugation, aspiration and re-suspension were then repeated. The membrane/bead mixture (100 μl) was then added to 96-well plates containing 50 μl of 500 pM [^125I]-MCH (NEN) and […] of the appropriate concentration of compound (4× the desired final concentration). Nonspecific binding was determined by including 1 μM MCH in the binding reaction. The binding reaction was incubated at room temperature for 2 h. Plates were then analyzed in a TOPCOUNT microplate scintillation counter (Packard). Data was analyzed and Ki values were determined using GraphPad Prism.
As for `N#Cc1cccc(-c2ccc(C3(NCC(=O)Nc4ccc(F)c(C(F)(F)F)c4)CCN(C4CCCC4)CC3)cc2)c1`, the Ki stood at 16 nM. Regarding `CN(CC(=O)Nc1ccc(F)c(C(F)(F)F)c1)C1(c2ccc(-c3cccc(C#N)c3)cc2)CCN(C2CCCC2)CC1`, the Ki stood at 18 nM. For `N#Cc1cccc(-c2ccc(C3(NCC(=O)Nc4ccc(F)c(Cl)c4)CCN(C4CCCC4)CC3)cc2)c1` the value was 2.6 nM; for `CN(CC(=O)Nc1ccc(F)c(Cl)c1)C1(c2ccc(-c3cccc(C#N)c3)cc2)CCN(C2CCCC2)CC1`, 4.2 nM; for `N#Cc1cccc(-c2ccc(C3(NCC(=O)Nc4ccc(Cl)c(C(F)(F)F)c4)CCN(C4CCCC4)CC3)cc2)c1`, 23 nM. The molecule `CN(CC(=O)Nc1ccc(Cl)c(C(F)(F)F)c1)C1(c2ccc(-c3cccc(C#N)c3)cc2)CCN(C2CCCC2)CC1` yielded a Ki of 16 nM. Regarding `N#Cc1cccc(-c2ccc(C3(NCC(=O)Nc4cc(F)cc(F)c4)CCN(C4CCCC4)CC3)cc2)c1`, affinity was put at a Ki of 2.5 nM. This Ki lies about 6.4-fold lower than the previous one. The molecule `CN(CC(=O)Nc1cc(F)cc(F)c1)C1(c2ccc(-c3cccc(C#N)c3)cc2)CCN(C2CCCC2)CC1` had a Ki of 6.2 nM. `N#Cc1cccc(-c2ccc(C3(N(CC(=O)Nc4cc(F)cc(F)c4)CC4CC4)CCN(C4CCCC4)CC3)cc2)c1` gave a Ki of 69 nM. Compared with the last molecule, the Ki is about 11-fold higher. The molecule `N#Cc1cccc(-c2ccc(C3(OCC(=O)Nc4cc(Cl)cc(Cl)c4)CCNCC3)cc2)c1` showed a Ki of 3.2 nM. Against the preceding molecule, the Ki is about 22-fold lower.

For `CN1CCC(OCC(=O)Nc2cc(Cl)cc(Cl)c2)(c2ccc(-c3cccc(C#N)c3)cc2)CC1`, affinity was put at a Ki of 4 nM. For `N#Cc1cccc(-c2ccc(C3(OCC(=O)Nc4cc(Cl)cc(Cl)c4)CCN(CC4CC4)CC3)cc2)c1` the value was 1.8 nM. `N#Cc1cccc(-c2ccc(C3(OCC(=O)Nc4cc(Cl)cc(Cl)c4)CCN(C4CCCC4)CC3)cc2)c1` displayed a Ki of 2.2 nM. This Ki and that of the molecule before are within 1.5-fold of each other. In turn, `CCN(CC(=O)Nc1ccc(F)c(Cl)c1)C1(c2ccc(-c3cccc(C#N)c3)cc2)CCN(C2CCCC2)CC1` came in with a Ki of 10.6 nM. In turn, `N#Cc1cccc(-c2ccc(C3(OCC(=O)Nc4ccc(F)c(Cl)c4)CCN(CC4CC4)CC3)cc2)c1` registered a Ki of 2 nM. The value for `N#Cc1cccc(-c2ccc(C3(OCC(=O)Nc4ccc(Cl)c(C(F)(F)F)c4)CCN(CC4CC4)CC3)cc2)c1` was 23 nM; that for `O=C(CNC1(c2ccc(-c3cccc(OC(F)(F)F)c3)cc2)CCN(C2CCCC2)CC1)Nc1ccc(F)c(Cl)c1` was 76 nM. The molecule `CC(C)(C)OC(=O)N1CCC(NCC(=O)Nc2ccc(F)c(Cl)c2)(c2ccc(-c3cccc(C#N)c3)cc2)CC1` gave a Ki of 56 nM. Turning to `N#Cc1cccc(-c2ccc(C3(OCC(=O)Nc4cc(Cl)cc(Cl)c4)CCN(C4CCCCC4)CC3)cc2)c1`, the inhibitory constant (Ki) worked out at 19 nM.

`CC1CCC(N2CCC(OCC(=O)Nc3cc(Cl)cc(Cl)c3)(c3ccc(-c4cccc(C#N)c4)cc3)CC2)C1` (stereo not drawn) registered a Ki of 11 nM. For the molecule `N#Cc1cccc(-c2ccc(C3(OCC(=O)Nc4cc(Cl)cc(Cl)c4)CCN(C4CCOCC4)CC3)cc2)c1`, the Ki came out at 9 nM. For `N#Cc1cccc(-c2ccc(C3(OCC(=O)Nc4cc(Cl)cc(Cl)c4)CCN(C4CCSC4)CC3)cc2)c1` (stereo not drawn), the affinity corresponds to a Ki of 19 nM. In the case of `CC1CCC(C)CC(N2CCC(OCC(=O)Nc3cc(Cl)cc(Cl)c3)(c3ccc(-c4cccc(C#N)c4)cc3)CC2)C1` (stereo not drawn), the Ki stood at 20 nM. The value for `N#Cc1cccc(-c2ccc(C3(OCC(=O)Nc4cc(Cl)cc(Cl)c4)CCN(C4Cc5ccccc5C4)CC3)cc2)c1` was 62 nM.

Take `COC1CCCC(CN2CCC(OCC(=O)Nc3cc(Cl)cc(Cl)c3)(c3ccc(-c4cccc(C#N)c4)cc3)CC2)O1` (stereo not drawn): the Ki worked out at 20 nM.

The molecule `N#Cc1cccc(-c2ccc(C3(OCC(=O)Nc4cc(Cl)cc(Cl)c4)CCN(C4C5CCCC4CCC5)CC3)cc2)c1` (stereo not drawn) registered a Ki of 48 nM. Turning to `CC(C)C1CCC(N2CCC(OCC(=O)Nc3cc(Cl)cc(Cl)c3)(c3ccc(-c4cccc(C#N)c4)cc3)CC2)CC1` (stereo not drawn), the Ki worked out at 19 nM. As to `CC(=O)C1CCC(N2CCC(OCC(=O)Nc3cc(Cl)cc(Cl)c3)(c3ccc(-c4cccc(C#N)c4)cc3)CC2)CC1` (stereo not drawn), the Ki stood at 6 nM. The molecule `N#Cc1cccc(-c2ccc(C3(OCC(=O)Nc4cc(Cl)cc(Cl)c4)CCN(C4CCC5CCCCC5C4)CC3)cc2)c1` (stereo not drawn) returned a Ki of 36 nM. This Ki lies about 6-fold higher than the previous one.

Molecule `N#Cc1cccc(-c2ccc(C3(OCC(=O)Nc4cc(Cl)cc(Cl)c4)CCN(C4CCC(C(F)(F)F)CC4)CC3)cc2)c1` (stereo not drawn) returned a Ki of 49 nM. The Ki values of the last two molecules are within 1.5-fold of each other. As for `N#Cc1cccc(-c2ccc(C3(OCC(=O)Nc4cc(Cl)cc(Cl)c4)CCN(C4CCCC(C(F)(F)F)C4)CC3)cc2)c1` (stereo not drawn), the inhibitory constant (Ki) stood at 86 nM. This Ki is about 1.8-fold higher than that of the molecule before. The value for `N#Cc1cccc(-c2ccc(C3(OCC(=O)Nc4cc(Cl)cc(Cl)c4)CCN(C4CCC(c5ccccc5)CC4)CC3)cc2)c1` (stereo not drawn) was 95 nM. As for `CC(C)CCN1CCC(OCC(=O)Nc2cc(Cl)cc(Cl)c2)(c2ccc(-c3cccc(C#N)c3)cc2)CC1`, affinity was put at a Ki of 30 nM. Compared with the last molecule, the Ki is about 3.2-fold lower. Take `CCC(C)CN1CCC(OCC(=O)Nc2cc(Cl)cc(Cl)c2)(c2ccc(-c3cccc(C#N)c3)cc2)CC1` (stereo not drawn): affinity was put at a Ki of 21 nM. Take `N#Cc1cccc(-c2ccc(C3(OCC(=O)Nc4cc(Cl)cc(Cl)c4)CCN(Cc4cccs4)CC3)cc2)c1`: the Ki came to 26 nM. As to `N#Cc1cccc(-c2ccc(C3(OCC(=O)Nc4cc(Cl)cc(Cl)c4)CCN(Cc4ccsc4)CC3)cc2)c1`, the Ki came to 27 nM. The Ki values of the last two molecules are within 1.5-fold of each other. For `N#Cc1cccc(-c2ccc(C3(OCC(=O)Nc4cc(Cl)cc(Cl)c4)CCN(Cc4cccc(O)c4)CC3)cc2)c1` the value was 19 nM. For `N#Cc1cccc(-c2ccc(C3(OCC(=O)Nc4cc(Cl)cc(Cl)c4)CCN(Cc4ccc(O)cc4)CC3)cc2)c1` the value was 20 nM; for `N#Cc1cccc(-c2ccc(C3(OCC(=O)Nc4cc(Cl)cc(Cl)c4)CCN(CCCc4ccccc4)CC3)cc2)c1`, 50 nM. In turn, `CC(CN1CCC(OCC(=O)Nc2cc(Cl)cc(Cl)c2)(c2ccc(-c3cccc(C#N)c3)cc2)CC1)c1ccccc1` (stereo not drawn) showed a Ki of 42 nM. For `COc1ccccc1CN1CCC(OCC(=O)Nc2cc(Cl)cc(Cl)c2)(c2ccc(-c3cccc(C#N)c3)cc2)CC1` the value was 15 nM; for `COc1ccc(CN2CCC(OCC(=O)Nc3cc(Cl)cc(Cl)c3)(c3ccc(-c4cccc(C#N)c4)cc3)CC2)cc1`, 39 nM. Molecule `CC(CCN1CCC(OCC(=O)Nc2cc(Cl)cc(Cl)c2)(c2ccc(-c3cccc(C#N)c3)cc2)CC1)c1ccccc1` (stereo not drawn) displayed a Ki of 72 nM. Consider `O=C(CNC1(c2ccc(-c3cc(Cl)ccc3Cl)cc2)CCN(C2CCCC2)CC1)Nc1ccc(F)c(Cl)c1`, for which the Ki is 52 nM. With `CN(CC(=O)Nc1ccc(F)c(Cl)c1)C1(c2ccc(-c3cccc(C#N)c3)cc2)CCN(CCO)CC1`, the affinity, expressed as Ki, was 10 nM. The value for `N#Cc1cccc(-c2ccc(C3(OCC(=O)Nc4ccc(Cl)c(C(F)(F)F)c4)CCN(CCO)CC3)cc2)c1` was 48 nM. With `N#Cc1cccc(-c2ccc(C3(OCC(=O)Nc4ccc(Cl)c(C(F)(F)F)c4)CCN(C4CCCC4)CC3)cc2)c1`, the affinity corresponds to a Ki of 49 nM. The Ki values of the last two molecules are within 1.5-fold of each other. Take `N#Cc1cccc(-c2ccc(C3(OCC(=O)Nc4ccc(F)c(Cl)c4)CCN(CCO)CC3)cc2)c1`: the Ki came to 8.2 nM.

In the case of `O=Cc1cccc(-c2ccc(C3(NCC(=O)Nc4ccc(F)c(Cl)c4)CCN(C4CCCC4)CC3)cc2)c1`, the Ki was determined as 21 nM. In turn, `O=C(CNC1(c2ccc(-c3cccc(-c4ncc[nH]4)c3)cc2)CCN(C2CCCC2)CC1)Nc1ccc(F)c(Cl)c1` yielded a Ki of 8.3 nM. Regarding `N#Cc1cccc(-c2ccc(C3(CCC(=O)Nc4cc(Cl)cc(Cl)c4)CCN(C4CCCC4)CC3)cc2)c1`, affinity was put at a Ki of 35.5 nM.

As to `N#Cc1cccc(-c2ccc(C3(CCC(=O)Nc4ccc(F)c(Cl)c4)CCN(C4CCCC4)CC3)cc2)c1`, the affinity, expressed as Ki, was 26 nM. The Ki values of the last two molecules are within 1.5-fold of each other. `N#Cc1cccc(-c2ccc(C3(CCC(=O)Nc4cc(F)cc(F)c4)CCN(C4CCCC4)CC3)cc2)c1` returned a Ki of 36 nM. The molecule `N#Cc1cccc(-c2ccc(C3(CCC(=O)Nc4ccc(F)c(F)c4)CCN(C4CCCC4)CC3)cc2)c1` registered a Ki of 15 nM. For `CC(C)(C)OC(=O)N1CCC(CCC(=O)Nc2ccc(F)c(F)c2)(c2ccc(-c3cccc(C#N)c3)cc2)CC1` the value was 51 nM. In turn, `N#Cc1cccc(-c2ccc(C3(CCC(=O)Nc4ccc(F)c(F)c4)CCNCC3)cc2)c1` displayed a Ki of 25 nM. Molecule `N#Cc1cccc(-c2ccc(C3(CCC(=O)Nc4ccc(F)c(F)c4)CCN(CC4CC4)CC3)cc2)c1` gave a Ki of 8 nM. Turning to `N#Cc1cccc(-c2ccc(C3(CCC(=O)Nc4cc(Cl)cc(Cl)c4)CCN(CC4CC4)CC3)cc2)c1`, the Ki was 27 nM. In the case of `N#Cc1cccc(-c2ccc(C3(CCC(=O)Nc4ccc(F)c(F)c4)CCN(C4CCC4)CC3)cc2)c1`, the Ki came to 19 nM. In turn, `N#Cc1cccc(-c2ccc(C3(CCC(=O)Nc4ccc(F)c(Cl)c4)CCN(CC4CC4)CC3)cc2)c1` displayed a Ki of 34 nM. Regarding `N#Cc1cccc(-c2ccc(C3(CCC(=O)Nc4cc(F)cc(F)c4)CCN(CC4CC4)CC3)cc2)c1`, the Ki was found to be 31 nM. Turning to `N#Cc1cccc(-c2ccc(C3(CCC(=O)Nc4cc(F)cc(C(F)(F)F)c4)CCN(CC4CC4)CC3)cc2)c1`, the Ki turned out to be 49 nM.

In the case of `CC(=O)N1CCC(CCC(=O)Nc2ccc(F)c(F)c2)(c2ccc(-c3cccc(C#N)c3)cc2)CC1`, the affinity, expressed as Ki, was 61 nM.

Turning to `CCN(CC)C(=O)N1CCC(CCC(=O)Nc2ccc(F)c(F)c2)(c2ccc(-c3cccc(C#N)c3)cc2)CC1`, the affinity, expressed as Ki, was 45 nM. On to `N#Cc1cccc(-c2ccc(C3(CCC(=O)Nc4ccc(Cl)c(C(F)(F)F)c4)CCN(CC4CC4)CC3)cc2)c1`, for which the Ki is 80 nM. For `N#Cc1cccc(-c2ccc(C3(CCC(=O)Nc4cccc(OC(F)(F)F)c4)CCN(CC4CC4)CC3)cc2)c1` the value was 69 nM.
